Measurements published in PubChem BioAssay AID179 (DTP/NCI, 2004).
Calls of active or inactive are those of the source.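 The calls were made as follows: active = compounds giving half or more protection of infected cells from virus-caused growth loss, again on retest; inactive = the rest.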 Where a SMILES comes first, the peptide text is derived from it. [ ]: non-standard residue; d: D form. The star is where a group is joined. ξ: configuration not given here. hSer = N[CH](CCO)C(=O)O; Boc = CC(C)(C)OC(=O)*; OBn = c1ccc(CO*)cc1; ξP = O=C(O)C1CCCN1

Tested on: CEM cells HIV-1 protection, formazan growth assay
Assay: NCI AIDS Antiviral Assay
Settings: for IC50: measured here: growth of uninfected CEM cells
Procedure, shortened: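 Steps: treat uninfected and HIV-1-infected human CEM cells at five drug levels; quantify growth by soluble formazan; retest any compound reaching 50% protection; classify actives from the retest.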

Row | SMILES | outcome | EC50 | IC50
1 | CN(C)CC1CCC/C1=N/OC(=O)c1ccccc1 (stereo not drawn) | inactive |  | 
2 | COc1ccc(C[N+](C)(C)N)cc1OC |  | > 200 µM | > 200 µM
3 | CN(/N=C/C=N/N(C)C1=NCCN1)C1=NCCN1 |  | > 200 µM | > 200 µM
4 | CCOC(=O)/C(F)=C/c1ccc([N+](=O)[O-])cc1 |  | > 41.7 µM | > 41.7 µM
5 | O=C1OS(=O)(=O)c2ccccc21 |  | > 200 µM | > 200 µM
6 | CC(C)C(O)S(=O)(=O)O (stereo not drawn) |  | > 200 µM | > 200 µM
7 | CC1C2CC(CC2N)C1(C)C (stereo not drawn) |  | > 162 µM | > 162 µM
8 | CN(N)/N=N/c1nc[nH]c1[N+](=O)[O-] |  | > 200 µM | 5.62 µM
9 | COc1ccc(/C=C2\CCC(C)c3c2nc(N)c(C#N)c3-c2ccc(OC)c(OC)c2)cc1OC (stereo not drawn) | inactive |  | 
10 | Cc1ccc(S(=O)(=O)N/N=C2/CC3CCC2C3)cc1 (stereo not drawn) |  | > 200 µM | > 200 µM
11 | Cc1cn(C2CC(CO)N(CCO)O2)c(=O)[nH]c1=O (stereo not drawn) |  | > 200 µM | > 200 µM
12 | Cc1ccc(NC(=O)CSc2nnc(-c3ccc(N=Cc4ccc(Cl)cc4)cc3)o2)cc1 |  | > 282 µM | 145 µM
13 | Cc1nc(NS(=O)(=O)c2ccc(NC(=O)c3ccccc3SC(=O)CCCC[n+]3ccccc3)cc2)oc1C |  | 16.6 µM | 52.5 µM
14 | CCOC(=O)CNCc1cc(=O)[nH]c2cc(Cl)ccc12 |  | > 200 µM | 40.7 µM
15 | CC1=NC(C)(C)[N+]([O-])=C1 | inactive |  | 
16 | O=C(c1ccccc1[N+](=O)[O-])C(Br)C(Br)c1ccc(Cl)c(Cl)c1 (stereo not drawn) |  | > 20 µM | 1 µM
17 | O=C(CC(C(=O)c1cccs1)c1ccsc1)c1cccs1 (stereo not drawn) |  | > 200 µM | 40.7 µM
18 | CN(N)c1cn[nH]c(=O)c1Cl |  | > 200 µM | > 200 µM
19 | CCCOc1cnc([C@H]2CCC3[C@@H]4CC=C5C[C@@H](O)CC[C@]5(C)C4CC[C@@]32C)s1 (stereo partly drawn) |  | > 60.3 µM | > 60.3 µM
20 | CP1CCC(O)(c2ccccc2)CC1 (stereo not drawn) |  | > 200 µM | > 200 µM
21 | Cc1ccc(S(=O)(=O)N/N=C(\C(=O)Nc2cccc([N+](=O)[O-])c2)c2nc3ccc([N+](=O)[O-])cc3[nH]c2=O)cc1 |  | > 123 µM | 115 µM
22 | COc1c(C)c(C/C=C(\C)CC/C=C(\C)CC/C=C(\C)CC/C=C(\C)CCC=C(C)C)c(OC)c(OC)c1OC |  | > 200 µM | 31.6 µM

Row | SMILES | outcome | EC50 | IC50
23 | O=C(O)/C=C/C(=O)NCCCCCCNC(=O)/C=C/C(=O)O | inactive |  | 
24 | CC(=O)OCC(=O)[C@@]1(O)CC[C@H]2[C@@H]3CCC4=CC(=O)C=C[C@]4(C)[C@@]3(F)[C@@H](O)C[C@@]21C | inactive |  | 
25 | NCCCN1CCN(CCCN)CC1 (tested in a mixture with another compound) |  | > 200 µM | > 200 µM
26 | COc1ccc(/C=C/c2cc(OC)c(OC)c(OC)c2)cc1O[Si](C)(C)C(C)(C)C |  | > 8.71 µM | 0.479 µM
27 | O=C1OCC(C(=O)c2cccc(O)c2)C1=O (stereo not drawn) | inactive |  | 
28 | O=C(O)c1ccc2c3c(n[se]c13)-c1ccccc1C2=O |  | > 8.32 µM | > 8.32 µM
29 | Nc1nc(Cl)c(N=Nc2ccc(Cl)cc2)c(NCC2(CO)CC(OCc3ccccc3)C2)n1 (stereo not drawn) |  | > 20 µM | 14.5 µM
30 | COc1ccc(C=C2C(=O)c3ccccc3C2=O)cc1 | inactive |  | 
31 | CCCOC(=O)c1cc(C(=CCC[C@H]2CC[C@@]3(C)[C@@H](CC[C@@H]4[C@@H]3CC[C@]3(C)[C@@H](C(C)CCCC(C)C)CC[C@@H]43)C2)c2cc(Cl)c(O)c(C(=O)OCCC)c2)cc(Cl)c1O (stereo partly drawn) |  | > 151 µM | > 151 µM
32 | COc1ccccc1NC(=O)C(=O)C(C#N)CC(C)(C)C=O (stereo not drawn) |  | > 85.1 µM | > 85.1 µM
33 | CCN1CCC(O)(c2ccc(O)cc2)C(C(=O)c2ccc(O)cc2)C1 (stereo not drawn) |  | > 16.2 µM | > 16.2 µM
34 | O=Nc1c[nH]c(=O)[nH]c1=O |  | > 200 µM | > 200 µM
35 | Cc1sc2nc3n(c(=O)c2c1C)N=C(c1ccccc1)CS3 |  | > 200 µM | > 200 µM
36 | Nc1nc(O)c2ncn([C@H]3CC[C@@H](CO)O3)c2n1 |  | 1.74 µM | > 200 µM
37 | Cc1ccc(C)c(C(=O)c2ccccc2C(=O)O)c1 |  | > 200 µM | > 200 µM
38 | COC(=O)C(CNC(=O)/C=C/c1ccc(OC)c(OC)c1)NC(=O)/C=C/c1ccc(OC)c(OC)c1 (stereo not drawn) |  | > 200 µM | 135 µM
39 | COc1ccc2c(c1)[nH]c1c(C)c3ccncc3c(C)c12 |  | > 200 µM | 0.112 µM
40 | COc1ccc(C(=O)/C=C/c2ccc(OCC(=O)N3CCN(c4ccccc4)CC3)cc2)cc1OC | inactive |  | 
41 | COc1ccc2c3c1OC1CC(O)C=CC31CCN(C)C2 (stereo not drawn) |  | > 200 µM | > 200 µM
42 | CCCC(C)(O)CCC(O)(CCC)CCC (stereo not drawn) |  | > 200 µM | > 200 µM
43 | COc1cc2c(c(OC)c1OC)-c1ccc(NCCCNc3ccc4c(cc3=O)C(NC(C)=O)CCc3cc(OC)c(OC)c(OC)c3-4)c(=O)cc1C(NC(C)=O)CC2 (stereo not drawn) | inactive |  | 
44 | COc1c(Cl)cc(C(=CCC[C@H]2CC[C@@]3(C)C(CC[C@@H]4C3CC[C@]3(C)C(C(C)CCCC(C)C)CCC43)C2)c2cc(Cl)c(OC)c(C(=O)O)c2)cc1C(=O)O (stereo partly drawn) |  | 12 µM | 302 µM

Row | SMILES | outcome | EC50 | IC50
45 | CNC(=S)/C(=N\Nc1nc[nH]c1C(N)=O)C(N)=S |  | > 2 µM | 0.955 µM
46 | Cc1cc(=O)oc2c3c(cc(OCc4ccccc4)c12)OC(C)(C)[C@H](OC(=O)C12CCC(C)(C(=O)O1)C2(C)C)[C@@H]3OC(=O)C12CCC(C)(C(=O)O1)C2(C)C (stereo partly drawn) |  | > 200 µM | 44.7 µM
47 | C=C(OC1C(C)=C2C(C1OC(=O)CCCCCCC)C(C)(OC(C)=O)CC(OC(=O)CCC)C1(O)C2OC(=O)C1(C)O)/C(C)=C/C (stereo not drawn) |  | > 2 µM | 0.00282 µM
48 | COc1ccc(C(CC(=O)c2ccc3c(c2)OCO3)c2c(O)c3ccccc3oc2=O)cc1OC (stereo not drawn) |  | > 200 µM | 75.9 µM
49 | CC1(C)CCC2=C(C1)Nc1ccc(Cl)cc1NC2c1ccc([N+](=O)[O-])cc1 (stereo not drawn) |  | > 200 µM | 24.5 µM
50 | O=C(Nc1nc(-c2ccccc2)cs1)OCC(Cl)(Cl)Cl |  | > 200 µM | 4.47 µM
51 | Nc1c(Cl)ncnc1N[C@@H]1C[C@H]1CO |  | > 200 µM | > 200 µM
52 | c1ccc2c(c1)c1ccccc1c1nccnc21 |  | > 200 µM | 69.2 µM
53 | NCCC1(N)CCNCC1 | inactive |  | 
54 | Cc1n[nH]c(=O)n1-c1cccnc1 |  | > 200 µM | > 200 µM
55 | Cc1cc(N(CCC#N)CCC#N)ccc1/C(N=Nc1ccc([N+](=O)[O-])cc1)=N\NC(=O)c1cc(Cl)ccc1C(=O)c1ccccc1 |  | > 200 µM | 11.2 µM
56 | COc1cc(-c2[o+]c3cc(O)cc(OC4OC(CO)C(O)C(O)C4O)c3cc2OC2OC(CO)C(O)C(O)C2O)cc(OC)c1O (stereo not drawn) |  | > 67.6 µM | 40.7 µM
57 | C/C=C1/[C@@H]2C[C@H]3C4=Nc5ccccc5C4(C4[C@@H](O)ON3[C@@H]14)[C@@H]2C(=O)OC |  | > 200 µM | > 200 µM
58 | O=C1N(Cc2ccccc2)C2CSCC2N1Cc1ccccc1 (stereo not drawn) |  | > 200 µM | 87.1 µM
59 | COc1c(Br)cc(Br)c(OC)c1-c1ccc[nH]1 |  | > 38 µM | > 38 µM
60 | CC(C)(C)OC(=O)N[C@@H](Cc1ccccc1)C(=O)N1CCCC1C(=O)OCc1ccccc1 (stereo partly drawn) (Boc-Phe-[ξP]-OBn) |  | > 41.7 µM | > 41.7 µM
61 | C/C(CN1C(=O)c2ccccc2C1=O)=N\NS(=O)(=O)c1ccc2ccccc2c1 |  | > 447 µM | > 447 µM
62 | CCOC(=O)c1nc2c(C)nc(N(C)C)nc2n(C)c1=O |  | > 200 µM | > 200 µM
63 | C/C(=N/N(C=O)C[n+]1ccccc1)C(CN(CC(C)C)CC(C)C)C(=O)Nc1ccc(C)cc1C (stereo not drawn) |  | > 69.2 µM | > 69.2 µM
64 | COc1cc2c(cc1OC)C13CC(=O)N(C(C)=O)N1CCCN3C2=O (stereo not drawn) |  | > 145 µM | > 145 µM
65 | CC1(C)CC(=O)C(C=NC(=O)c2ccncc2)=C(O)C1 |  | 100 µM | > 200 µM
66 | O=Nc1c(O)c(S(=O)(=O)O)cc2cc(S(=O)(=O)O)ccc12 |  | > 200 µM | 33.1 µM

Row | SMILES | outcome | EC50 | IC50
67 | O=C1Cc2c([nH]c3cc(Br)ccc23)-c2ccccc2N1 |  | > 200 µM | 8.91 µM
68 | Oc1cc(Cl)cc2cc(Cl)cnc12 | inactive |  | 
69 | COc1ccc(C(=O)O)c2c(=O)c3ccccc3[nH]c12 | inactive |  | 
70 | CN(C)CCCSCC(COc1nccc(-c2ccc(-c3ccc(-c4ccnc(OCC(CSCCCN(C)C)SCCCN(C)C)n4)s3)s2)n1)SCCCN(C)C (stereo not drawn) |  | > 4.27 µM | 2.69 µM
71 | S=C(N/N=C(/c1ccccc1)c1ccccn1)Nc1ccccc1 |  | > 0.2 µM | 0.0977 µM
72 | O=c1cc(O)nc(CO)[nH]1 |  | > 200 µM | > 200 µM
73 | O=C1/C(=C2\Sc3c(ccc(Cl)c3Cl)C2=O)Sc2c1ccc(Cl)c2Cl |  | > 200 µM | > 200 µM
74 | CC1(C)c2ccccc2N2C(c3ccccc3)=NOC21C (stereo not drawn) |  | > 25.7 µM | > 25.7 µM
75 | COc1ccc2c(c1)C1CCN(C)CC1OC2=O (stereo not drawn) | inactive |  | 
76 | CN1CN(c2ccccc2)C2(CCNCC2)C1=O |  | > 200 µM | > 200 µM
77 | CC1(C)C2CC(=O)C1(C)C(O)C2Br (stereo not drawn) | inactive |  | 
78 | O=C(/C=C/CC(O)(c1ccccc1)c1ccccc1)Nc1ccccc1Cl |  | > 19.1 µM | > 19.1 µM
79 | COCCC(NC(=O)C(CC(C)C)NC(=O)OC(C)(C)C)C(=O)OC (stereo not drawn) (Boc-Leu-[hSer](Me)-OMe; configuration not given here) |  | > 200 µM | 26.9 µM
80 | O=C1c2ccccc2C2(c3ccc(Cl)cc3)NCc3ccccc3CN12 (stereo not drawn) |  | > 200 µM | 12.9 µM
81 | COc1nc2ncc([C@@H](OC(C)=O)[C@@H](COC(C)=O)OC(C)=O)nc2c(=O)n1C |  | > 200 µM | > 200 µM
82 | OC1OC(c2ccco2)C(F)(F)C(F)(F)C1(F)F (stereo not drawn) |  | > 200 µM | 102 µM
83 | Nc1snc2ncccc12 |  | > 1200 µM | 66.1 µM
84 | c1ccc(SC2(Sc3ccccc3)CCCCCCCCCCC2)cc1 |  | > 200 µM | 166 µM
85 | C=C1C(=O)OC2C3C(=C)[C@@H](OC(C)=O)CC3C(C)=CC(OC(=O)C(C)(O)C(C)OC(C)=O)[C@@H]12 (stereo partly drawn) |  | > 200 µM | > 200 µM
86 | CCCCS(=O)(=O)CCC(N)P(=O)(O)O (stereo not drawn) |  | > 200 µM | > 200 µM
